Test results published in patent US20110152088A1, “Herbicidal Composition Comprising Flufenacet” (BAYER CROPSCIENCE AG, priority 2009, published 2011).

Tests used:
MATCH [1] = assay: Greenhouse trial: different sowing depths on PE application (test method 10); type: in vivo, Matricaria chamomilla; conditions: g of AS/ha: (A) 90, (B) 1200, (C) 140, (A)+(B)+(C) 90 + 1200 + 140
Protocol: (§1) In the standard design of the test, seeds of various broad-leaved weed and weed grass biotypes (origins) were sown in a 8-13 cm diameter pot filled with natural soil of a standard field soil (loamy silt; non-sterile) and covered with a covering soil layer of about 1 cm. The pots were then cultivated in a greenhouse (12-16 h of light, temperature day 20-22° C., night 15-18° C.) until the time of application. The pots were treated on a laboratory track sprayer with spray liquors comprising the compositions according to the invention, mixtures of the prior art or components used individually. Application of the active compounds or active compound combinations formulated as WG, WP, EC or otherwise was carried out at the appropriate growth stages of the plants. The application rate for the spray application was 100-600 l of water/ha. After the treatment, the plants were returned to the greenhouses.
(§2) About 3 weeks after the application, the soil action or/and foliar action was assessed visually according to a scale of 0-100% in comparison to an untreated comparative group: 0%=no noticeable effect compared to the untreated comparative group; 100%=full effect compared to the untreated comparative group.
(§3) (notes: the term “seeds” also includes vegetative propagation forms such as, for example, rhizome pieces; abbreviations used: h light=hours of illumination, g of AS/ha=gram of active substance per hectare, I/ha=liter per hectare, S=sensitive, R=resistant) • 1. Pre-emergence action against weeds: seeds of various broad-leaved weed and weed grass biotypes (origins) were sown in a 8-13 cm diameter pot filled with natural soil of a standard field soil (loamy silt; non-sterile) and covered with a covering soil layer of about 1 cm. The pots were then cultivated in a greenhouse (12-16 h of light, temperature day 20-22° C., night 15-18° C.) until the time of application. The pots were treated at the BBCH stage 00-10 of the seeds/plants on a laboratory track sprayer with spray liquors comprising the compositions according to the invention, mixtures or components used individually, as WG, WP, EC or other formulations. The application rate for the spray application was 100-600 l of water/ha. After the treatment, the plants were returned to the greenhouses and, when required, treated with fertilizer and watered. • 2. Post-emergence action against weeds: seeds of various broad-leaved weed and weed grass biotypes (origins) were sown in a 8-13 cm diameter pot filled with natural soil of a standard field soil (loamy silt; non-sterile) and covered with a covering soil layer of about 1 cm. The pots were then cultivated in a greenhouse (12-16 h of light, temperature day 20-22° C., night 15-18° C.) until the time of application. The pots were treated at various BBCH stages between 11-25 of the seeds/plants, i.e. generally between two to three weeks after the start of the cultivation, on a laboratory track sprayer with spray liquors comprising the compositions according to the invention, mixtures or components used individually, as WG, WP, EC or other formulations. The application rate for the spray application was 100-600 l of water/ha. After the treatment, the plants were returned to the greenhouses and, when required, treated with fertilizer and watered. • 3. Pre-emergence action against weeds with and without incorporation of active compound: seeds of various broad-leaved weed and weed grass biotypes (origins) were sown in a 8-13 cm diameter pot filled with natural soil of a standard field soil (loamy silt; non-sterile). […]

MATCH [2] = assay: Greenhouse trial: different soil types (test method 8); type: in vivo, Matricaria chamomilla; conditions: g of AS/ha: (A) 120, (B) 1200, (C) 140, (A)+(B)+(C) 120 + 1200 + 140
Protocol: as §1, §2, §3

AVEFA [3] = assay: Greenhouse trial: PE application with different irrigation variants (test method 7); type: in vivo, Avena fatua; conditions: g of AS/ha: (A) 120, (B) 1200, (C) 140, (A)+(B)+(C) 120 + 1200 + 140
Protocol: as §1, §2, §3

LOLSS = assay: Greenhouse trial: resistant biotypes following PE application (test method 9); type: in vivo, Lolium species; conditions: g of AS/ha: (A) 90, (B) 1200, (C) 140, (A)+(B)+(C) 90 + 1200 + 140, iodosulfuron 10
Protocol: as §1, §2, §3

POAAN [4] = assay: Greenhouse trial: PE soil application vs incorporation into the soil (test methods 1, 3 and 4); type: in vivo, Poa annua; conditions: g of AS/ha: (A) 120, (B) 1200, (C) 140, (A)+(B)+(C) 120 + 1200 + 140
Protocol: as §1, §2, §3

POAAN [5] = assay: Greenhouse trial: PO application (test methods 2 and 5); type: in vivo, Poa annua; conditions: g of AS/ha: (A) 120, (B) 1600, (C) 140, (A)+(B)+(C) 120 + 1600 + 140
Protocol: as §1, §2
(§4) (notes: the term “seeds” also includes vegetative propagation forms such as, for example, rhizome pieces; abbreviations used: h light=hours of illumination, g of AS/ha=gram of active substance per hectare, I/ha=liter per hectare, S=sensitive, R=resistant) • 1. Pre-emergence action against weeds: seeds of various broad-leaved weed and weed grass biotypes (origins) were sown in a 8-13 cm diameter pot filled with natural soil of a standard field soil (loamy silt; non-sterile) and covered with a covering soil layer of about 1 cm. The pots were then cultivated in a greenhouse (12-16 h of light, temperature day 20-22° C., night 15-18° C.) until the time of application. […]

TRZAS [6] = assay: Greenhouse trial: PE soil application vs incorporation into the soil (test methods 1, 3 and 4); type: in vivo, Triticum aestivum, summer wheat; conditions: g of AS/ha: (A) 120, (B) 1200, (C) 140, (A)+(B)+(C) 120 + 1200 + 140
Protocol: as §1
(§5) About 3 weeks after the application, the soil action or/and foliar action was assessed visually according to a scale of 0-100% in comparison to an untreated comparative group: 0%=no noticeable effect compared to the untreated comparative group; 100%=full effect compared to the untreated comparative group. […]

LOLPE = assay: Greenhouse trial: PE application with different irrigation variants (test method 7); type: in vivo, Lolium perenne; conditions: g of AS/ha: (A) 120, (B) 1200, (C) 140, (A)+(B)+(C) 120 + 1200 + 140
Protocol: as §1, §2, §3

TRZAS [7] = assay: Greenhouse trial: PE application vs application 7 days prior to sowing (test method 6); type: in vivo, Triticum aestivum, summer wheat; conditions: g of AS/ha: (A) 90, (B) 1200, (C) 140, (A)+(B)+(C) 90 + 1200 + 140
Protocol: as §1, §5

MATCH [8] = assay: Greenhouse trial: PE application with different irrigation variants (test method 7); type: in vivo, Matricaria chamomilla; conditions: g of AS/ha: (A) 120, (B) 1200, (C) 140, (A)+(B)+(C) 120 + 1200 + 140
Protocol: as §1, §2, §3

HORVS = assay: Greenhouse trial: different soil types (test method 8); type: in vivo, Hordeum vulgare, summer barley; conditions: g AS/ha: (A) 120, (B) 1200, (C) 140, (A)+(B)+(C) 120 + 1200 + 140
Protocol: as §1, §2, §4

STEME = assay: Greenhouse trial: resistant biotypes following PE application (test method 9); type: in vivo, Stellaria media; conditions: PE, g of AS/ha: (A) 90, (B) 1200, (C) 140, (A)+(B)+(C) 90 + 1200 + 140, iodosulfuron 10
Protocol: as §1, §2, §3

AVEFA [9] = assay: Greenhouse trial: PE application vs application 7 days prior to sowing (test method 6); type: in vivo, Avena fatua
Protocol: as §1, §2, §3

APESV [10] = assay: Greenhouse trial: different sowing depths on PE application (test method 10); type: in vivo, Apera Spica-venti; conditions: g of AS/ha: (A) 90, (B) 1200, (C) 140, (A)+(B)+(C) 90 + 1200 + 140
Protocol: as §1, §2, §3

APESV [11] = assay: Greenhouse trial: PO application (test methods 2 and 5); type: in vivo, Apera Spica-venti; conditions: g of AS/ha: (A) 120, (B) 1600, (C) 140, (A)+(B)+(C) 120 + 1600 + 140
Protocol: as §1, §2, §4

## CSc1nnc(C(C)(C)C)c(=O)n1N [(C) metribuzin, 4-amino-6-(1,1-dimethylethyl)-3-(methylthio)-1,2,4-triazon-5(4H)-one]
MATCH [1]; sowing depth 5 mm
  activity MATCH 5 mm: 100%
MATCH [1]; sowing depth 20 mm
  activity MATCH 20 mm: 70%
MATCH [2]; IU soil
  activity MATCH IU soil: 0%
MATCH [2]; IU/EC73 soil vs IU soil
  Difference of the soil types Δ^D, MATCH: Δ^D + 5%
MATCH [2]; IU/EC73 soil
  activity MATCH IU/EC73 soil: 15%
AVEFA [3]; Irrigation from above
  activity AVEFA: 30%
AVEFA [3]; Irrigation from below
  activity AVEFA: 30%
LOLSS; PE, resistant biotype
  activity LOLSS resistant: 70%
LOLSS; PE, sensitive biotype
  activity LOLSS sensitive: 70%
LOLSS
  Difference Δ^D activity resistant to activity sensitive, LOLSS: Δ^D ± 0%
POAAN [4]; Incorporation
  activity POAAN: 68%
POAAN [4]; PE application
  activity POAAN: 0%
POAAN [5]
  activity POAAN: 79%
TRZAS [6]; Incorporation
  activity TRZAS (crop plant): 100%
TRZAS [6]; PE application
  activity TRZAS (crop plant): 65%
LOLPE; Irrigation from above
  activity LOLPE: 55%
LOLPE; Irrigation from below
  activity LOLPE: 48%
TRZAS [7]
  activity TRZAS (crop plant): 30%
MATCH [8]; Irrigation from above
  activity MATCH: 0%
MATCH [8]; Irrigation from below
  activity MATCH: 60%
HORVS; IU soil
  activity HORVS IU soil (crop plant): 0%
HORVS; IU/EC73 soil vs IU soil
  Difference of the soil types, HORVS: 0%
HORVS; IU/EC73 soil
  activity HORVS IU/EC73 soil (crop plant): 0%
STEME; resistant biotype
  activity STEME resistant: 98%
STEME; sensitive biotype
  activity STEME sensitive: 100%
AVEFA [9]; PE application, g of AS/ha: (A) 90, (B) 1200, (C) 140, mixture 90 + 1200 + 140
  activity AVEFA: 10%
AVEFA [9]; application 7 days prior to sowing, g of AS/ha: (A) 90, (B) 1200, (C) 140, (A)+(B)+(C) 90 + 1200 + 140
  activity AVEFA: 0%
APESV [10]; sowing depth 5 mm
  activity APESV 5 mm: 75%
APESV [10]; sowing depth 20 mm
  activity APESV 20 mm: 100%
APESV [11]
  activity APESV: 79%
